The results in this text go back to US10160747B2, “Compounds and methods for kinase modulation, and indications therefor” (Plexxikon Inc., priority 2016, dated 2018).

Test [1] deals with MOLM-14 D835Y (endogenous FLT3 ITD and transfected FLT3 D835Y). Nature of the test: MOLM-14 D835Y cell proliferation assay (CellTiter-Glo). The class given is cell-based. The following applies: Homo sapiens, MOLM-14, 72 h; 3 d growth, GMean. Summed up: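 MOLM-14 derivatives carrying D835Y or F691L, selected under escalating AC220, were seeded at 1×10^4 cells/well and exposed to an 8-point 1:3 compound series (1 to 0.00046 μM, 0.2% DMSO final) for three days at 37° C., 5% CO2. CellTiter-Glo luminescence (ATP content) versus concentration gave IC50.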

For a further test, the target named is T1, BA/F3-FLT3-ITD + D835Y (Homo sapiens, UniProt P36888, D835Y, cells depend on it, form not given).
T1 sequence (P36888 with tags, fused parts or gaps INS600HVDFREYEYD/D835Y): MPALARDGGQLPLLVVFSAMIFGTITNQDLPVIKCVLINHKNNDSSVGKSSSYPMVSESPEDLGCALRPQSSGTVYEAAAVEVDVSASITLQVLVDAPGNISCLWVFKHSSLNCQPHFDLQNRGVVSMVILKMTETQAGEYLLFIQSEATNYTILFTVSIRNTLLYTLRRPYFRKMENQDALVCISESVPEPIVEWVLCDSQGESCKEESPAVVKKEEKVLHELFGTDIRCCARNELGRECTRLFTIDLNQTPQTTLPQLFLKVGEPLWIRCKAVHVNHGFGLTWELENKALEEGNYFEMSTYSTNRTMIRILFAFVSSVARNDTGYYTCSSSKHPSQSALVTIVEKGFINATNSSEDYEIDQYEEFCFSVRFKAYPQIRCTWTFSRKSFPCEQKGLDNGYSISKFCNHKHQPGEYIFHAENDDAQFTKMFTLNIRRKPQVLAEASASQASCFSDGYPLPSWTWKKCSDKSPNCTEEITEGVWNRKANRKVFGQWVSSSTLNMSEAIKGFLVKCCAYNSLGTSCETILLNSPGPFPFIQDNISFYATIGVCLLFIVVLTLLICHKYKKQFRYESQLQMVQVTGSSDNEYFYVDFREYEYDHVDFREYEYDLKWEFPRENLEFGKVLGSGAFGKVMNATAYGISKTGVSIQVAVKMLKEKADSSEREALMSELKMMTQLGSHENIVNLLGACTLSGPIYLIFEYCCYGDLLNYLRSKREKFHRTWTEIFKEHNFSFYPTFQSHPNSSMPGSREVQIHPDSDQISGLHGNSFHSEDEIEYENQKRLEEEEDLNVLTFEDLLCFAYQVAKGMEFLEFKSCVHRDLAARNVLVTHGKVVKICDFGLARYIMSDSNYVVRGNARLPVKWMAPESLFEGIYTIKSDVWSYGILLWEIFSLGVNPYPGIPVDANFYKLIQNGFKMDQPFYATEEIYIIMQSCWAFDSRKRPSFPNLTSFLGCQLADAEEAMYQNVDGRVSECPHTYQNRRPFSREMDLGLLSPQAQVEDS
Nature of the test: Engineered BA/F3 cell growth assay, FLT3 ITD/D835Y. The class given is cell-based, murine. The following applies: 3 d growth. The procedure, abridged:
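IC50 derived from CellTiter-Glo ATP luminescence after 3 days at 37 °C, 5% CO2, over eight 1:3 dilutions from 1 μM (0.2% DMSO final). Cells: IL-3-independent murine Ba/F3 expressing full-length FLT3 ITD/D835Y, 1×10^4 per well.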

The structures appear in SMILES notation.

Broadly, the IC50 is the midpoint of a concentration-inhibition curve. A higher IC50 goes with lower potency. Broadly, the GI50 is the concentration that inhibits growth by half. For the molecule `Cc1ncc(NC(=O)Cc2ccc(-c3cnc(Nc4cnn(C)c4)nc3)cc2F)cc1C(F)(F)F` [Compound P-0091, 2-[2-fluoro-4-[2-[(1-methylpyrazol-4-yl)amino]pyrimidin-5-yl]phenyl]-N-[6-methyl-5-(trifluoromethyl)-3-pyridyl]acetamide], the IC50 in test [1] was 0.0001 to 10 µM. Also, the GI50 at BA/F3-FLT3-ITD + D835Y was in the range of 0.0001 to 10 µM.
The molecule `O=C(Cc1ccc(-c2cnc3[nH]c(-c4ccc(N5CCOCC5)nc4)cc3c2)c(F)c1)Nc1cncc(C(F)(F)F)c1` [Compound P-0198, 2-[3-fluoro-4-[2-(6-morpholino-3-pyridyl)-1H-pyrrolo[2,3-b]pyridin-5-yl]phenyl]-N-[5-(trifluoromethyl)-3-pyridyl]acetamide] returned a half-inhibitory concentration (IC50) in test [1] of 0.0001 to 10 µM. Also, the concentration for 50% growth inhibition (GI50) on BA/F3-FLT3-ITD + D835Y is 0.0001 to 10 µM.
On to `COc1ncc(NC(=O)Cc2ccc(-c3cnc(Nc4cnn(C)c4)nc3)cc2)cc1C(F)(F)F` [Compound P-0138, N-[6-methoxy-5-(trifluoromethyl)-3-pyridyl]-2-[4-[2-[(1-methylpyrazol-4-yl)amino]pyrimidin-5-yl]phenyl]acetamide], for which the IC50 in test [1] was 0.0001 to 10 µM. Besides, the GI50 at BA/F3-FLT3-ITD + D835Y is 0.0001 to 10 µM.
For `O=C(Cc1ccc(-c2cnc3[nH]c(-c4ccccc4)cc3c2)c(F)c1)Nc1cccc(C(F)(F)F)c1` [Compound P-0003, 2-[3-fluoro-4-(2-phenyl-1H-pyrrolo[2,3-b]pyridin-5-yl)phenyl]-N-[3-(trifluoromethyl)phenyl]acetamide], the IC50 in test [1] fell in the range of 0.0001 to 10 µM. Further, on BA/F3-FLT3-ITD + D835Y, the 50% growth inhibitory concentration (GI50) lay within 0.0001 to 10 µM.
